Reference: patent US20250353873A1, “COMPOUNDS AND METHODS FOR MODULATING APOE EXPRESSION” (Ionis Pharmaceuticals, Inc., priority 2024, published 2025)
Strand notation (5' to 3'): a small letter for the sugar, then the base; units joined by * are phosphorothioate-linked, units joined directly phosphodiester-linked; [ ] holds rarer units or linkages, { } end groups; capitals alone tell only the bases. [ms] = mesyl phosphoramidate linkage; k = constrained ethyl (cEt); [5mC] = 5-methylcytosine; d = 2'-deoxy (DNA)

What was measured:
[1] = system: human APOE RNA; experiment: Dose-dependent inhibition of human APOE RNA in HepG2 cells, electroporation, 50,000 cells per well, RT-PCR normalized to GAPDH (Example 4, Tables 8-10); format: cell-based; conditions: HepG2, electroporation, 24-hour treatment
Method in brief: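 Readout is percent APOE RNA versus untreated controls, measured by RT-PCR (primer probe set RTS3073) and normalized to human GAPDH. Modified oligonucleotides were delivered by electroporation at varying doses into HepG2 cells plated at 50,000 per well.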

[2] = system: human APOE RNA; experiment: Activity in APOE C57BL/6NTac-Apoeem7250 knock-in mice, single ICV bolus, 4 weeks (Example 10); format: in vivo; conditions: single ICV bolus 300 μg, 4 weeks post treatment, normalized to mouse Ppia
Method in brief: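 Human APOE RNA, quantified by real-time RT-PCR with RTS3073 and normalized to mouse Ppia, was read in cortical brain and spinal cord 4 weeks post dosing. Dosing was a single ICV bolus of 300 μg per knock-in mouse; values are % of PBS-treated animals.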

[3] = system: human APOE RNA; experiment: Activity in APOE C57BL/6NTac-Apoeem7250 knock-in mice, single ICV bolus, 8 weeks (Example 11); format: in vivo; conditions: single ICV bolus 300 μg, 8 weeks post treatment, normalized to mouse Ppia
Method in brief: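 Cortical and spinal cord human APOE RNA quantified by RT-qPCR 8 weeks after a single 300 μg ICV dose in knock-in mice, Ppia-normalized. Values are percent of levels in PBS-treated animals.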

[4] = system: human APOE RNA; experiment: Duration of action study in APOE C57BL/6NTac-Apoeem7250 knock-in mice (Example 16); format: in vivo; conditions: 300 μg ICV
Protocol: Modified oligonucleotides described above were tested in the APOE C57BL/6NTac-Apoeem7250 knock-in mouse model described above.
APOE C57BL/6NTac-Apoeem7250 knock-in mice were divided into groups of 2-4 mice each. Each mouse received a single intracerebroventricular (ICV) bolus of 300 μg of modified oligonucleotide. A group of 2-4 mice received a single ICV bolus with PBS as a negative control.
Mice were sacrificed at various timepoints as indicated in the table below and RNA was extracted from cortical brain tissue and spinal cord for quantitative real-time RT-PCR analysis of RNA expression of APOE using primer probe set RTS3073 (described herein above). APOE RNA levels were normalized to mouse Ppia. Mouse Ppia was amplified using primer probe set m_cyclo24 (described herein above). Results are presented as percent human APOE RNA relative to the amount of human APOE RNA in PBS treated animals, (% control). Each experiment is identified in separate tables below.

| Substance | APOE RNA (% UTC) ([1]; 5 nM) | APOE RNA (% UTC) ([1]; 13 nM) | APOE RNA (% UTC) ([1]; 33 nM) | APOE RNA (% UTC) ([1]; 82 nM) | APOE RNA (% UTC) ([1]; 205 nM) | APOE RNA (% UTC) ([1]; 512 nM) | APOE RNA (% UTC) ([1]; 1,280 nM) | APOE RNA (% UTC) ([1]; 3,200 nM) | APOE RNA (% UTC) ([1]; 8,000 nM) | APOE RNA (% UTC) ([1]; 20,000 nM) | IC50 [1] [nM] | APOE RNA (% control) Cortex [2] [% control] | APOE RNA (% control) Spinal Cord [2] [% control] | APOE RNA (% control) Cortex ([3]; cortex) [% control] | APOE RNA (% control) Spinal Cord ([3]; spinal cord) [% control] | APOE RNA (% control) Cortex ([4]; 112 days post-dose) [% control] | APOE RNA (% control) Cortex ([4]; 140 days post-dose) [% control] | APOE RNA (% control) Spinal Cord ([4]; 112 days post-dose) [% control] | APOE RNA (% control) Spinal Cord ([4]; 140 days post-dose) [% control] |
| --- | --- | --- | --- | --- | --- | --- | --- | --- | --- | --- | --- | --- | --- | --- | --- | --- | --- | --- | --- |
| 1746800 (k[5mC]*dT[ms]kT*dG[ms]dG[ms]kT*dG[ms]dA[ms]dA[ms]dT*d[5mC]*dT*dT*dT*dA[ms]dT*kT*dA[ms]kA*kA; antisense) [Compound 1746800] | 108 | 111 | 137 | 115 | 97 | 77 | 87 | 39 | 35 | 8 | 3270 | 41 | 40 | 40 | 30 | 52 | 75 | 88 | 58 |
| 1746801 (k[5mC]*dT[ms]dT[ms]kG*kG*dT[ms]dG[ms]dA[ms]dA[ms]dT*d[5mC]*dT*dT*dT*dA[ms]dT*kT*dA[ms]kA*kA; antisense) [Compound 1746801] | 93 | 98 | 114 | 99 | 76 | 56 | 33 | 11 | 14 | 2 | 670 | 58 | 44 |  |  | 47 | 67 | 70 | 138 |
| 1746811 (k[5mC]*dT[ms]dT[ms]kG*kG*dT[ms]dG[ms]dA[ms]dA[ms]dT*d[5mC]*dT*dT*dT*dA[ms]dT*dT[ms]kA*kA*kA; antisense) [Compound 1746811] | 99 | 86 | 83 | 95 | 70 | 54 | 47 | 23 | 12 | 5 | 740 | 61 | 62 |  |  | 71 | 89 | 95 | 103 |
